Assay results published in patent US7858738B2, “Synthetic human peptides and pharmaceutical compositions comprising them for the treatment of systemic lupus erythematosus” (Yeda Research and Development Co., Ltd., priority 2001, dated 2010).

What was measured:
BALB/c-derived LNCs = assay: In vivo inhibition of proliferation of LNC of BALB/c mice immunized with mCDR1; details: maximum % inhibition; 200 μg s.c. in PBS concomitant with immunization; LNC tested ten days later
Description: To this end, BALB/c and SJL mice were immunized with mCDR1 and mCDR3, respectively. The immunizing murine peptides were injected (10 μg/mouse) in CFA intradermally in the hind footpads. Concomitant with the immunization, groups of BALB/c mice were injected subcutaneously (s.c.) with 200 μg in PBS of hCDR1 and groups of SJL mice were similarly injected with hCDR3. Ten days after the immunization, mice were sacrificed and their lymph nodes were harvested and the cells were tested for their ability to proliferate following triggering with the immunizing peptides. Briefly, LNCs of immunized mice (0.5×10^6/well) were cultured (in triplicates) in the presence of different concentrations (1-20 μg/well) of the murine immunizing peptides in enriched RPMI-1640 medium supplemented with 1% normal mouse serum. Following four days of incubation, ^3H-thymidine was added for additional 16 hours. Cells were then harvested and radioactivity was counted using a β-counter.
The inhibition was calculated based on the proliferation of LNCs of mice that were not treated with the inhibitory peptides hCDR1 and hCDR3. It can be seen that hCDR1 and hCDR3 were capable of inhibiting the proliferative responses to the immunizing murine CDR peptides.

BALB/c mice = assay: Treatment of 16/6Id-induced experimental SLE in BALB/c mice; type: in vivo; details: for mice with immune complex deposits in kidneys: 7 months after booster, untreated 9/10; for Anti-dsDNA O.D. (1:50), Mean ± SD: 16/6Id injected 1.1 ± 0.6; for Anti-dsDNA antibodies at a dilution of: 1:250, Mean ± SD: 16/6Id alone 1.16 ± 0.37; for Intensity of ICD In kidneys, Mean ± SD: 16/6Id alone 1.86 ± 0.38; for Anti-16/6 Id antibodies at a dilution of 1:1000, Mean ± SD: 16/6Id alone 2.55 ± 0.09; for Anti-dsDNA antibodies 1:1250, Mean ± SD: 16/6Id alone 0.47 ± 0.3; for Anti-16/6 Id antibodies 1:10000, Mean ± SD: 16/6Id alone 0.89 ± 0.1; for Intensity of ICD in kidneys, Mean ± SD: 16/6Id alone 1.6 ± 0.55
Description: Induction and treatment of experimental SLE. In order to induce experimental SLE, BALB/c mice were immunized with 1-2 μg of the human mAb 16/6Id and boosted 3 weeks later. For the prevention of experimental SLE, mice were given hCDR1 or hCDR3 (mCDR1 or revmCDR1 as control peptide in Example 12) intravenously (i.v.) or s.c. concomitant with the immunization, and were injected weekly thereafter for 5 weeks. Treatment of an established disease started three and a half months following disease induction with the 16/6Id, when clinical manifestations were already observed. In Example 12, mice received 10 weekly injections (i.v. or s.c.) of mCDR1 or revmCDR1 at a dose of 100 μg/mouse. Prevention and treatment of SLE-like disease in (NZB×NZW)F1 mice with the hCDR1 or mCDR1 peptide. For prevention of SLE, mice at the age of 2 months, before disease manifestations are observed, were injected s.c. with hCDR1 (or mCDR1 in Example 12, 250 μg/mouse) once a week for 10 weeks. To treat an established disease, mice at the age of 5-7 months were injected with hCDR1 (in Example 12, mCDR1 s.c., 250 μg/mouse) once a week for 10 weeks. Proliferative Responses. PBL were isolated from heparinized venous blood by Ficoll-Hypaque (Pharmacia) density-gradient centrifugation. All assays were performed, in triplicate, in flat-bottomed microtiter plates (Falcon, Becton Dickinson, Oxmard, Calif., USA) in which 2×10^5 PBL were cultured in enriched RPMI-1640 as described (Dayan et al., 2000). The PBL were exposed to various concentrations (0.1-40 μg/well) of the human anti-DNA 16/6Id mAb with and without the addition of the various CDR-based peptides at a concentration of at least 10-fold excess over that of the 16/6Id. Phytohemagglutinin (PHA; 2 μg/well) was used as a control for culture conditions at each experiment. The cultures were incubated in 7.5% CO2 at 37° C. for 6 days. Eighteen hours before the cells were harvested, [^3H]-thymidine (0.5μ Ci of 5 Ci/mmol) (Nuclear Research Center, Negev, Israel) was added to all cultures. Results are expressed as the mean thymidine incorporation in counts per minute (CPM) of triplicate culture±SD, or as stimulation index (S.I.; the ratio of mean CPM at the optimal concentration of the human 16/6Id to the mean CPM in the presence of medium alone). A S.I.≧2 was considered a positive response (Dayan et al., 2000). Inhibition (the ratio of mean CPM in the presence of the 16/6Id and various CDR-based peptides to the mean CPM with the 16/6Id without the CDR-based peptide) above 50% was considered positive. Induction of Cytokine Production. Mice that were immunized with the human 16/6Id mAb and either treated or not with the CDR-based peptide, were killed at different periods during or after treatment with the peptide. Splenocytes and lymph node cells (LNC) were harvested and incubated (5×10^6/ml) in the presence of the 16/6Id. Supernatants were collected after 48 and 72 h. Assessment of Cytokines in the Supernatants. Supernatants were collected 48 hours following the initiation of the cultures and stored at −70° C. Measurements of IL-2, IL-10, IFN-γ, and TNF-α were performed by ELISA by using the relevant standards, capture and detecting Abs (Pharmingen) according to the manufacturer's instructions. TGF-β was determined by an ELISA. Briefly, plates were coated with the recombinant human TGF-β1 sRIII/Fc chimera (R & D Systems Inc., Minneapolis, Minn., USA), and the second Ab used was the biotinylated anti-human TGF-β1 antibody (R & D Systems Inc.). The substrate solution used was TMB color Reagent (Helix Diagnostics, West Sacramento, Calif.), and enzyme activity was evaluated by using 570- and 630-nm filters. Detection of SLE-Associated Clinical and Pathological Manifestations. Proteinuria was measured semiquantitatively by using Combistix kit (Ames Division, Bayer Diagnostics, Newbury, U.K.). White blood cells (WBC, for leukopenia) were counted after a 10-fold dilution of heparinized blood in distilled water containing 1% acetic acid (vol/vol). […]

[1] = Table 11, 200 μg/mouse for 10 weeks
[2] = Table 11, 300 μg/mouse for 10 weeks
[3] = Table 11, 400 μg/mouse for 10 weeks

## GYYWSWIRQPPGKGEEWIG (Human) [hCDR1, 19-mer peptide based on the CDR1 of the heavy chain of the human 16/6Id mAb]
BALB/c-derived LNCs
  % Inhibition of the proliferation of BALB/c-derived LNCs to mCDR1: 55%
BALB/c mice; 100 μg/mouse
  mice with immune complex deposits in kidneys: 3/10
BALB/c mice; 300 μg/mouse for 10 weeks
  mice with immune complex deposits in kidneys: 2/9
BALB/c mice; Table 10, 100 μg, end of treatment, 16/6Id injected 0.65 ± 0.36
  Proteinuria g/l, Mean ± SD: 0.3 ± 0.02 g/L
BALB/c mice; Table 10, 100 μg, end of treatment
  Anti-dsDNA O.D. (1:50), Mean ± SD: 0.3 ± 0.2 O.D.
BALB/c mice; Table 10, 100 μg, end of treatment, 16/6Id injected 3260 ± 920
  WBC/mm^3, Mean ± SD: 6090 ± 2160 /mm^3
BALB/c mice; Table 10, 300 μg, end of treatment, 16/6Id injected 0.65 ± 0.36
  Proteinuria g/l, Mean ± SD: 0.34 ± 0.25 g/L
BALB/c mice; Table 10, 300 μg, end of treatment
  Anti-dsDNA O.D. (1:50), Mean ± SD: 0.55 ± 0.3 O.D.
BALB/c mice; Table 10, 300 μg, end of treatment, 16/6Id injected 3260 ± 920
  WBC/mm^3, Mean ± SD: 5890 ± 2660 /mm^3
BALB/c mice; Table 11, 200 μg/mouse for 10 weeks, 16/6Id alone 0.5 ± 0.34
  Proteinuria g/l, Mean ± SD: 0.13 ± 0.16 g/L
BALB/c mice; [1]
  Anti-dsDNA antibodies at a dilution of: 1:250, Mean ± SD: 0.69 ± 0.39
  Intensity of ICD In kidneys, Mean ± SD: 0.57 ± 0.97
  Anti-16/6 Id antibodies at a dilution of 1:1000, Mean ± SD: 2.7 ± 0.12
BALB/c mice; Table 11, 200 μg/mouse for 10 weeks, 16/6Id alone 2871 ± 1205
  WBC/mm^3, Mean ± SD: 5625 ± 1659 /mm^3
BALB/c mice; Table 11, 300 μg/mouse for 10 weeks, 16/6Id alone 0.5 ± 0.34
  Proteinuria g/l, Mean ± SD: 0.16 ± 0.16 g/L
BALB/c mice; [2]
  Anti-dsDNA antibodies at a dilution of: 1:250, Mean ± SD: 0.45 ± 0.24
  Intensity of ICD In kidneys, Mean ± SD: 0.75 ± 0.71
  Anti-16/6 Id antibodies at a dilution of 1:1000, Mean ± SD: 2.8 ± 0.11
BALB/c mice; Table 11, 300 μg/mouse for 10 weeks, 16/6Id alone 2871 ± 1205
  WBC/mm^3, Mean ± SD: 4677 ± 1508 /mm^3
BALB/c mice; Table 11, 400 μg/mouse for 10 weeks, 16/6Id alone 0.5 ± 0.34
  Proteinuria g/l, Mean ± SD: 0.11 ± 0.15 g/L
BALB/c mice; [3]
  Anti-dsDNA antibodies at a dilution of: 1:250, Mean ± SD: 0.8 ± 0.39
  Intensity of ICD In kidneys, Mean ± SD: 0.71 ± 0.76
  Anti-16/6 Id antibodies at a dilution of 1:1000, Mean ± SD: 2.75 ± 0.1
BALB/c mice; Table 11, 400 μg/mouse for 10 weeks, 16/6Id alone 2871 ± 1205
  WBC/mm^3, Mean ± SD: 4012 ± 1421 /mm^3
BALB/c mice; Table 12, 200 μg/mouse weekly
  Anti-dsDNA antibodies 1:1250, Mean ± SD: 0.23 ± 0.1
  Anti-16/6 Id antibodies 1:10000, Mean ± SD: 0.96 ± 0.2
  Intensity of ICD in kidneys, Mean ± SD: 1 ± 0.63
BALB/c mice; Table 12, 200 μg/mouse weekly, 16/6Id alone 0.58 ± 0.34
  Proteinuria g/l, Mean ± SD: 0.17 ± 0.15 g/L
BALB/c mice; Table 12, 200 μg/mouse weekly, 16/6Id alone 2800 ± 300
  WBC/mm^3, Mean ± SD: 4900 ± 800 /mm^3
BALB/c mice; Table 12, 300 μg/mouse weekly
  Anti-dsDNA antibodies 1:1250, Mean ± SD: 0.2 ± 0.1
  Anti-16/6 Id antibodies 1:10000, Mean ± SD: 0.93 ± 0.1
  Intensity of ICD in kidneys, Mean ± SD: 0.5 ± 0.5
BALB/c mice; Table 12, 300 μg/mouse weekly, 16/6Id alone 0.58 ± 0.34
  Proteinuria g/l, Mean ± SD: 0.085 ± 0.01 g/L
BALB/c mice; Table 12, 300 μg/mouse weekly, 16/6Id alone 2800 ± 300
  WBC/mm^3, Mean ± SD: 5800 ± 300 /mm^3
